Data as given in patent publication US20260265234A1, “RUPATIFEN FUMARATE CRYSTAL FORM C, AND PREPARATION METHOD THEREFOR AND USE THEREOF” (FUJIAN MINDONG REJUENATION PHARMACEUTICAL CO., LTD., priority 2022, published 2026).
Like-named read-outs stand apart in the source and are kept apart here.

Columns and labels:
Format in all cases: physicochemical
[1] = Fluidity detection: angle of repose by fixed cone bottom method; conditions: average of three, <30° fluidity better, >40° poor
Source text: Measurement of angle of repose: a fixed cone bottom method was used, the funnel was fixed on a horizontal coordinate paper at a proper height, so that the distance from a lower opening of the funnel to the coordinate paper was H, the powder was carefully poured into the funnel until the tip of a cone formed below the funnel contacted an outlet of the funnel, the radius r of the cone can be measured by the coordinate paper, and measured three times continuously, and the average value was taken as the result. The angle of repose a was calculated as follows: […]
Judgment standard: when the angle of repose is <30°, the fluidity is better. When the angle of repose is >40°, the fluidity is poor.

[2] = Hygroscopicity analysis (weight gain, Chinese Pharmacopoeia 2020 guideline 9103); conditions: 25° C.±1° C., 24 hours; for Weight Gain: constant humidity
Experimental: 1) a dry glass weighing bottle with a plug (with an outer diameter of 50 mm and a height of 15 mm) was taken and placed in a proper constant-temperature dryer (the lower part was placed with ammonium chloride or ammonium sulfate saturated solution) at 25° C.±1° C. one day before the test; and the weight of the weighing bottle was precisely measured (m 1).
2) a proper amount of the test sample was taken, tiled in the weighing bottle, wherein the thickness of the test sample was about 1 mm, and the weight of the test sample was precisely measured (m 2). 3) the weighing bottle was opened, and placed with its bottle cap under the constant temperature and humidity conditions for 24 hours.
4) the bottle cap was covered well and the weight of […] was precisely measured (m 3).
According to 9103 guideline principle on drug hygroscopicity test in four part of Chinese Pharmacopoeia 2020 edition, the description of hygroscopicity characteristics and the definition of hygroscopicity weight gain are as follows:
Deliquescence: enough water is absorb to form liquid.
Extremely hygroscopic: the weight gain due to hygroscopicity is not less than 15%.
Hygroscopic: the weight gain due to hygroscopicity is less than 15% but not less than 2%.
Slightly hygroscopic: the weight gain due to hygroscopicity is less than 2% but not less than 0.2%.
No or almost no hygroscopicity: the weight gain due to hygroscopicity is less than 0.2%.

[3] = Solubility analysis in water and media of different pH, HPLC; conditions: for solubility thermodynamic: thermodynamic from solid, read-out: Concentration
Experimental: The excessive test sample was put into a dissolution instrument cup, added with water and an appropriate amount of water-soluble medium with different pH values (pH=1.2, 2.2, 4.0, 4.5, 5.5, 6.8), stirred at 37° C.±1° C. (rotation speed: 100 r/min) for dissolution (more than 6 hours) to form a […] solution, the saturated solution was filtered, the filtrate was diluted with a mobile phase by corresponding times, the concentration was measured by HPLC method, and the solubility was calculated.

[4] = Oil-water distribution coefficient log P (n-octanol-water) by HPLC retention time; conditions: HPLC retention time against standards of known log P
Source text: The standard substance having known log P (n-octanol-water) was used, the log P (n-octanol-water) of the substance to be tested was detected by HPLC. The principle is based on the fact that the retention time of chemical substances in a long hydrocarbon chain chromatographic column such as C18 column is related to their hydrocarbon-water distribution coefficient. Hydrophilic substances are eluted first, lipophilic substances are eluted later, and the oil-water distribution coefficient and the retention time are in a linear relationship, and the equation is as follows: [formula] [formula] log P: oil-water partition coefficient of samples (n-octanol-water); T0: dead time (measured by uracil here); Tn: retention time of samples by HPLC; according to the above formula, a linear relationship formula can be established by detecting the retention time of the standard substance and the known log P (n-octanol-water). The theoretical value of log P is used as the ordinate, the log K value is used as the abscissa for drawing, the values of a and b are obtained through calculation, and then the retention time (namely the log K value in the table) of samples to be detected is substituted into the equation to calculate the log P (n-octanol-water) value of samples.

[5] = Water for injection, 37° C.±1° C.

Row | Angle of Repose [1] [°] | Weight Gain [2] [%] | Concentration [3, 5] [µg/mL] | Equilibrium Solubility [3, 5] [mg/250 ml] | Concentration ([3]; pH = 1.2, 37° C.±1° C.) [µg/mL] | Equilibrium Solubility ([3]; pH = 1.2, 37° C.±1° C.) [mg/250 ml] | Concentration ([3]; pH = 2.2, 37° C.±1° C.) [µg/mL] | Equilibrium Solubility ([3]; pH = 2.2, 37° C.±1° C.) [mg/250 ml] | Concentration ([3]; pH = 4.0, 37° C.±1° C.) [µg/mL] | Equilibrium Solubility ([3]; pH = 4.0, 37° C.±1° C.) [mg/250 ml] | Concentration ([3]; pH = 4.5, 37° C.±1° C.) [µg/mL] | Equilibrium Solubility ([3]; pH = 4.5, 37° C.±1° C.) [mg/250 ml] | Concentration ([3]; pH = 5.5, 37° C.±1° C.) [µg/mL] | Equilibrium Solubility ([3]; pH = 5.5, 37° C.±1° C.) [mg/250 ml] | Equilibrium Solubility ([3]; pH = 6.8, 37° C.±1° C.) [mg/250 ml] | log P (n-octanol-water) [4] | SMILES | Hygroscopicity [2] | also measured
1 | 47 | 0.3 | 1790 | 448.75 | 26680 | 6669.86 | 3000 | 751.00 | 2290 | 571.88 | 2990 | 747.72 | 340 | 84.93 | 3.39 | 2.8 | Cc1cncc(CN2CCC(=C3c4ccccc4CC(=O)c4sccc43)CC2)c1.O=C(O)/C=C/C(=O)O [Crystalline form A, 4-[1-[(5-methylpyridin-3-yl)methyl]piperidyl-4-ylidene]-4,9-dihydro-10H-benzo[4,5]cycloheptyl[1,2-b]thiophen-10-one fumarate] | Slightly hygroscopic (the weight gain due to hygroscopicity is less than 2% but not less than 0.2%) | –
2 | 50 | 0.2 | 1220 | 305.45 | 29420 | 7355.56 | 2640 | 659.74 | 1410 | 352.76 | 1360 | 339.48 | – | 44.97 | 2.56 | – | Cc1cncc(CN2CCC(=C3c4ccccc4CC(=O)c4sccc43)CC2)c1.O=C(O)/C=C/C(=O)O [Crystalline form B, 4-[1-[(5-methylpyridin-3-yl)methyl]piperidyl-4-ylidene]-4,9-dihydro-10H-benzo[4,5]cycloheptyl[1,2-b]thiophen-10-one fumarate] | Slightly hygroscopic (the weight gain due to hygroscopicity is less than 2% but not less than 0.2%) | solubility thermodynamic ([3]; water-soluble medium of pH 5.5, 37 °C, pH 5.5, aqueous buffer, pH = 5.5, 37° C.±1° C.): 180 µg/mL; solubility thermodynamic ([3]; water-soluble medium of pH 6.8, 37 °C, pH 6.8, aqueous buffer, pH = 6.8, 37° C.±1° C.): 10 µg/mL; chromatographic logP [4]: 2.9
3 | 28 | 0.06 | 2460 | 616.34 | – | 4908.73 | – | 1013.35 | 2840 | 710.90 | 3770 | 942.80 | 310 | 77.90 | 4.40 | 3.2 | Cc1cncc(CN2CCC(=C3c4ccccc4CC(=O)c4sccc43)CC2)c1.O=C(O)/C=C/C(=O)O [Crystalline form C, 4-[1-[(5-methylpyridin-3-yl)methyl]piperidyl-4-ylidene]-4,9-dihydro-10H-benzo[4,5]cycloheptyl[1,2-b]thiophen-10-one fumarate] | No or almost no hygroscopicity (the weight gain due to hygroscopicity is less than 0.2%) | Angle of Repose ([1]; listed as crystalline form C): less than 30 °; solubility according to the classification system of biopharmaceuticals ([3]; medium with pH=6.8): slightly superior to that of other crystal forms; Concentration ([3]; pH = 6.8, 37° C.±1° C.): 18 µg/mL; solubility thermodynamic ([3]; water-soluble medium of pH 1.2, 37 °C, pH 1.2, simulated gastric fluid, pH = 1.2, 37° C.±1° C.): 19600 µg/mL; solubility thermodynamic ([3]; water-soluble medium of pH 2.2, 37 °C, pH 2.2, aqueous buffer, pH = 2.2, 37° C.±1° C.): 4050 µg/mL
4 | 49 | 0.4 | 1980 | 495.71 | 24470 | 6117.84 | 3400 | 849.73 | 2530 | 633.71 | 3430 | 856.32 | – | 76.85 | 3.61 | 2.7 | Cc1cncc(CN2CCC(=C3c4ccccc4CC(=O)c4sccc43)CC2)c1.O=C(O)/C=C/C(=O)O [Mixed crystal, 4-[1-[(5-methylpyridin-3-yl)methyl]piperidyl-4-ylidene]-4,9-dihydro-10H-benzo[4,5]cycloheptyl[1,2-b]thiophen-10-one fumarate] | Slightly hygroscopic (the weight gain due to hygroscopicity is less than 2% but not less than 0.2%) | –
